Entries after “also recorded” stand apart in the source; their conditions may differ.
Experiments:
[1] = Rising single dose study: LC-MS profiling of SCH 530348 metabolites in plasma and urine; type: in vivo, human; conditions: for Amount detected in urine (LC-MS): 0-24 hr urine after single 40-mg SCH 530348, humans; for Matrix in which metabolite was detected: single oral 20 and 40 mg SCH 530348, healthy male volunteers, plasma and urine extracts; for Amount detected in plasma (LC-MS): first 6-hr period after single 20- or 40-mg SCH 530348, humans
Description: Phase I clinical studies were designed to evaluate the pharmacokinetics of SCH 530348 in healthy subjects after rising single and multiple doses. The studies included a randomized, evaluator-blind, placebo-controlled, rising single dose (“RSD”) study and a rising multiple dose (“RMD”) study of orally administered SCH 530348 in healthy subjects.
In the single-dose study, 50 healthy males were enrolled into 6 sequential cohorts and randomized to receive in ascending dose manner placebo (n=2-3/group) or oral SCH 530348 (0.25, 1, 5, 10, 20 and 40 mg; n=5-6/group). The objective of this study was to qualitatively assess SCH 530348 metabolites in selected plasma and urine samples following administration of a single oral dose (20 mg or 40 mg, Groups 5 and 6, respectively) of SCH 530348 to healthy male human subjects. Plasma samples from subjects receiving 20 mg and 40 mg of SCH 530348 or placebo were profiled using liquid chromatography-mass spectrometry (“LC-MS”). Only urine samples from 40 mg dose group were profiled. Corresponding plasma and urine LC-MS profiles from the drug- and placebo-dosed subjects were compared to distinguish the drug-derived components from the endogenous material. Next, metabolites were further characterized using liquid chromatography-tandem mass spectrometry (“LC-MS/MS”) methods. Pathways involved in metabolism of SCH 530348 in humans were proposed.
The samples were analyzed using LC-MS System B comprised of TSQ Quantum (Thermo Electron Corp., San Jose, Calif.) operating in a positive electrospray ionization mode, HPLC module Alliance 2695 (Waters, Corp., Milford, Mass.), and flow scintillation analyzer 500TR Series (PerkinElmer Life and Analytical Sciences, Inc., Boston, Mass.).
The clinical phase of the study was conducted at Pharma Bio-Research Group B.V. (Zuidlaren, The Netherlands). Selected plasma and urine samples from Group 5 (20 mg dose and placebo) and Group 6 (40 mg dose and placebo) were shipped and received frozen at Schering-Plough Research Institute (“SPRI”). The samples were stored at −20±10° C. until processing and analysis for metabolites.
Plasma samples from subjects dosed with SCH 530348 or with placebo, in the […], were pooled as summarized in the following table.
To determine extraction efficiency, all available pre-dose plasma from subjects dosed with SCH 530348 (40-mg dose group) was also pooled across subjects. A 2.0 mL aliquot of plasma was spiked with 10 μL of a system suitability mixture (“SSM”) [SCH 530348 and ^14C-SCH 530348 (combined concentration 40 ng/μL, 5000 DPM/μL), SCH 540679 (40 ng/μL), and SCH 609528 (40 ng/μL)] and processed by solvent extraction with protein precipitation. After extracting once with three volumes of acetonitrile, the supernatant was concentrated and reconstituted in dimethylsulfoxide (˜50% of final sample volume) followed by the addition of 1/1 mixture of mobile phases A and B. Following centrifugation, a sample aliquot was analyzed by liquid chromatography-mass spectrometry/flow scintillation analysis (LC-MS/FSA).
A similar procedure was used to process all plasma samples from the drug- or placebo-administered subjects (20- and 40-mg dose groups), and an aliquot of each reconstituted extract was injected for LC-MS analysis. Targeted LC-MS/MS analysis to confirm the presence of metabolites and characterize their structures was also performed.
Urine samples collected during the first 24-hr period post 40-mg dose were pooled across all SCH 530348-dosed subjects (n=5) and across placebo subjects (n=3). Five milliliters of urine (20% of available urine) were pooled from each subject.
To determine the extraction efficiency, 10% of available pre-dose urine from subjects to be dosed with SCH 530348 was also pooled across the subjects. An aliquot (ca. 3.15 mL) was spiked with 15 μL of SSM and extracted by solid-phase extraction. The urine sample was loaded onto a conditioned Sep-Pak Vac tC18 (Waters Corp.) cartridge and washed with water. […]

thrombin receptor = target: T1, thrombin receptor (Homo sapiens, UniProt P25116); test: Calcium transient assay (human coronary artery smooth muscle cells, TK-induced calcium efflux); type: cell-based
T1 construct: human coronary artery smooth muscle cell assay measuring effects on thrombin receptor agonist peptide; endogenous in cells; host or cells: human coronary artery smooth muscle cells
T1 sequence (P25116 22-425): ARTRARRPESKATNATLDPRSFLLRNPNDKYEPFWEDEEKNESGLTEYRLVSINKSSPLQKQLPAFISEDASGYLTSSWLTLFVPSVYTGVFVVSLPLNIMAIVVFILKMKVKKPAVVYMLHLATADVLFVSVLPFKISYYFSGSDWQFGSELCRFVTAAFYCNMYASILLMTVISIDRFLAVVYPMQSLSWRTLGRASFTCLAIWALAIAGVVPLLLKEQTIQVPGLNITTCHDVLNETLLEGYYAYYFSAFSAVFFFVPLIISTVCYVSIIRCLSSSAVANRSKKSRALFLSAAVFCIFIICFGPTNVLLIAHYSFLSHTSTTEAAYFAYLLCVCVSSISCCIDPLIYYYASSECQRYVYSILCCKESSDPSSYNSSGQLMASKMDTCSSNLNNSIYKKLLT
Method: Upon analysis, it was determined that, unlike the other detected metabolites, the concentration of the M20 metabolite in the blood was sufficient for it to be considered a “major metabolite.” That finding triggered an evaluation of its activity. In order to assess activity, SCH 530348 and the M20 metabolite were subjected to a human coronary artery smooth muscle cell assay measuring effects on thrombin receptor agonist peptide TFLLRNPNDK-NH2 (“TK”) on calcium efflux (“the calcium transient assay”).

[2] = Blood levels in placebo-controlled safety study of SCH 530348 in non-urgent PCI subjects; type: in vivo, human
Description: In a multi-center, randomized, double-blind, placebo-controlled study to evaluate the safety of SCH 530348 in subjects undergoing non-urgent percutaneous coronary intervention (“PCI”), blood samples were taken on days 15, 31, 60, 75, and 91. A steady state blood level concentration of SCH 530348 was reached by day 31. By day 31, the M20 metabolite was present in the blood at levels of 30-40% of those of the parent (SCH 530348).

[3] = Animal study, M20 formation and exposure multiples in rabbits; type: in vivo
Method: (§1) Exposure multiples exceeded 10 in monkeys after a single dose at 0.5 mg/kg, 25 in mice after a single dose at 75 mg/kg, and 50 in female rabbits on day 7 after multiple daily doses at 20 mg/kg.

[4] = Animal study, M20 exposure multiples in monkeys; type: in vivo; conditions: single dose at 0.5 mg/kg
Method: as §1

[5] = Animal study, M20 exposure multiples in mice; type: in vivo; conditions: single dose at 75 mg/kg
Method: as §1

Row | SMILES | Amount detected in urine (LC-MS) [1] | Matrix in which metabolite was detected [1] | IC50 (thrombin receptor; agonist peptide […]-NH2 (TK)) [nM] | Time to steady state blood level concentration ([2]; blood samples on days 15, 31, 60, 75, 91) [days] | Amount detected in plasma (LC-MS) [1] | IC50 (thrombin receptor; agonist peptide TFLLRNPNDK-NH2 (TK)) [nM] | Exposure multiples ([3]; female rabbits, day 7 after multiple daily doses at 20 mg/kg) | Formation of metabolite in animals ([3]; rabbits, after both single and multiple doses) | Blood level as % of that of the parent (SCH 530348) ([2]; by day 31) | Exposure multiples [4] | Exposure multiples [5]
1 | C[C@H]1OC(=O)[C@@H]2C[C@@H]3C[C@H](NC(=O)OCC(=O)O)CC[C@H]3[C@H](/C=C/c3ccc(-c4cccc(F)c4)cn3)[C@H]12 [Metabolite M16, [[[[(1R,3aR,4aR,6R,8aR,9S,9aS)-9-[(E)-2-[5-(3-fluorophenyl)-2-pyridinyl]ethenyl]dodecahydro-1-methyl-3-oxonaphtho[2,3-c]furan-6-yl]amino]carbonyl]oxy]acetic acid] | minor to trace levels | Urine | – | – | – | – | – | – | – | – | –
2 | CCOC(=O)N[C@@H]1CC[C@@H]2[C@@H](C1)C[C@H]1C(=O)O[C@H](C)[C@H]1[C@H]2/C=C/c1ccc(-c2cccc(F)c2)cn1 [SCH 530348, Ethyl[(1R,3aR,4aR,6R,8aR,9S,9aS)-9-[(E)-2-[5-(3-fluorophenyl)-2-pyridinyl]ethenyl]dodecahydro-1-methyl-3-oxonaphtho[2,3-c]furan-6-yl]carbamate, reference compound] | not detected | – | 4.5 | ≤ 31 | primary circulating component | – | – | – | – | – | –
3 | C[C@H]1OC(=O)[C@@H]2C[C@@H]3C[C@H](N)CC[C@H]3[C@H](/C=C/c3ccc(-c4cccc(F)c4)cn3)[C@H]12 [Metabolite M19, (3R,3aS,4S,4aR,7R,8aR,9aR)-7-amino-4-[(E)-2-[5-(3-fluorophenyl)-2-pyridinyl]ethenyl]-decahydro-3-methylnaphtho[2,3-c]furan-1(3H)-one] | minor to trace levels | Plasma,; also recorded: Urine | – | – | Trace amounts | – | – | – | – | – | –
4 | C[C@H]1OC(=O)[C@@H]2C[C@@H]3C[C@H](NC(=O)OCCO)CC[C@H]3[C@H](/C=C/c3ccc(-c4cccc(F)c4)cn3)[C@H]12 [Metabolite M20, 2-hydroxyethyl(1R,3aR,4aR,6R,9S,9aS)-9-{(E)-2(5-(3-fluorophenyl)pyridine-2-yl)vinvl}-1-methyl-3-oxododecahydronaphtho[2,3-c]furan-6ylcarbamate] | – | Plasma | – | – | Trace amounts | 3.4 | > 50 | formed | 30-40% | exceeded 10 | > 25
